Reference: PMC11949107, “Polyunsaturated fatty acids and their endocannabinoid-related metabolites activity at human TRPV1 and TRPA1 ion channels expressed in HEK-293 cells” (PeerJ, 2025)
Several values for one entry are separate records, joined by “and”; a condition that tells them apart may be missing. Equal entries are not always repeated.

Tests used:
[1] = target: T1, human TRPV1 (Homo sapiens, UniProt Q8NER1); assay: Calcium 5 dye [Ca]i assay in HEK-293 Flp-In T-REx cells expressing TRPV1 (agonist response); assay type: cell-based; conditions: for Elevation of [Ca]i in HEK-293 TRPV1 cells compared with HEK-293 EV cells / Change of Ca5 fluorescence, Mean ± SEM, TRPV1 (10 µM): 10 µM; for Change of Ca5 fluorescence, Mean ± SEM, TRPV1 (10 µM): HEK-293 TRPV1 cells, percentage of predrug baseline; for TRPV1 response, Mean± SEM (N): 30 µM, one-way ANOVA comparison with capsaicin 10 µM; for Emax ± SEM % TRPV1 (30 µM): highest tested concentration (30 µM) or derived from concentration-response curves (DHEA, AEA, NADA, capsaicin); for Change in Ca5 fluorescence, individual experiments (CRC raw data): TRPV1 cells
T1 construct: Life Technologies (cells); host or cells: Flp-In T-REx HEK-293
Experimental: (§1) The cells were incubated in a 5% CO2 humidified atmosphere at 37 °C. Upon reaching approximately 90% confluence in 75 cm^2 flasks, they were trypsinized and transferred to poly-D-lysine coated 96-well plates (Corning, Castle Hill, NSW, Australia) in L-15 medium supplemented with 1% FBS, 100 U penicillin and 100 µg streptomycin ml^−1 (1% P/S), and 15 mM glucose (80 µL volume per well). After an overnight incubation (maximum of 16 h) in humidified room air at 37 °C, TRPV1 and TRPA1 receptor expression was induced 4 h before experimentation by adding to each well 10 µL tetracycline solution to a final concentration of 1 µg ml^−1.
(§2) Intracellular calcium [Ca]i levels were assessed using the calcium 5 kit from Molecular Devices (# R8186, Sunnyvale, CA, USA) on a FlexStation 3 Microplate Reader (Molecular Devices, Sunnyvale, CA, USA). […] Probenecid (cat # 50027; Biotium) which helps to prevent expulsion of calcium indicator from the cells was added to a final concentration of 1.25 mM. 90 µL of the dye were loaded into each well of the plate and incubated for 1 h before reading in the FlexStation 3 at 37 °C. Fluorescence was recorded every 2 s (λ excitation = 485 nm, λ emission = 525 nm) for 5 min. After 1 min of baseline recording, 20 µL of the drug, dissolved in HBSS with 1% dimethyl sulfoxide (DMSO) (cat # D2650; Sigma-Aldrich, Melbourne, Australia) was added (final DMSO concentration was 0.1% in well).
(§3) The response to agonists was expressed as a percentage change from the average baseline measurement taken for 60s before adding drug. Changes in fluorescence resulting from the addition of solvent were subtracted before normalization to baseline. Concentration–response curves (CRC), Emax and EC50 values were determined using a three-parameter logistic equation (GraphPad Prism, San Diego, CA, USA). […] Potencies were expressed as pEC50, which is the negative log of EC50 in moles per litre (Molar). Where appropriate, unpaired Student’s t-test were used to compare the responses of individual compounds in different conditions, while a one-way ANOVA followed by Dunnett’s multiple comparisons test was used to assess potential differences in responses elicited by a range of compounds. P < 0.05 was considered statistically significant.

[2] = target: T2, human TRPA1 (Homo sapiens, UniProt O75762); assay: Calcium 5 dye [Ca]i assay in HEK-293 Flp-In T-REx cells expressing TRPA1 (agonist response); assay type: cell-based; conditions: for Elevation of [Ca]i in HEK-293 TRPA1 cells compared with HEK-293 EV cells: 10 µM (cinnamaldehyde 300 µM); for Change of Ca5 fluorescence, Mean ± SEM, TRPA1 (10 µM): HEK-293 TRPA1 cells, percentage of predrug baseline; for TRPA1 activation at the highest concentration tested / TRPA1 response compared with the highest concentration of cinnamaldehyde (300 µM) / TRPA1 response, Mean± SEM (N): 30 µM; for TRPA1 response, Mean± SEM (N): one-way ANOVA comparison with cinnamaldehyde 300 µM; for Emax ± SEM % TRPA1 (30 µM): highest tested concentration (30 µM) or derived from concentration-response curves (cinnamaldehyde); for Change in Ca5 fluorescence, individual experiments (CRC raw data): TRPA1 cells
T2 construct: Life Technologies (cells); host or cells: Flp-In T-REx HEK-293
Experimental: as §1, §2, §3

[3] = tested on: HEK-293 EV cells; assay: Calcium 5 dye [Ca]i assay in HEK-293 empty vector (EV) cells; assay type: cell-based, human; conditions: 10 µM; HEK-293 EV cells; percentage of predrug baseline
Experimental: as §1
Intracellular calcium [Ca]i levels were assessed using the calcium 5 kit from Molecular Devices (# R8186, Sunnyvale, CA, USA) on a FlexStation 3 Microplate Reader (Molecular Devices, Sunnyvale, CA, USA). […] 90 µL of the dye were loaded into each well of the plate and incubated for 1 h before reading in the FlexStation 3 at 37 °C. […] After 1 min of baseline recording, 20 µL of the drug, dissolved in HBSS with 1% dimethyl sulfoxide (DMSO) (cat # D2650; Sigma-Aldrich, Melbourne, Australia) was added (final DMSO concentration was 0.1% in well).
as §3

T1 sequence (Q8NER1 whole entry): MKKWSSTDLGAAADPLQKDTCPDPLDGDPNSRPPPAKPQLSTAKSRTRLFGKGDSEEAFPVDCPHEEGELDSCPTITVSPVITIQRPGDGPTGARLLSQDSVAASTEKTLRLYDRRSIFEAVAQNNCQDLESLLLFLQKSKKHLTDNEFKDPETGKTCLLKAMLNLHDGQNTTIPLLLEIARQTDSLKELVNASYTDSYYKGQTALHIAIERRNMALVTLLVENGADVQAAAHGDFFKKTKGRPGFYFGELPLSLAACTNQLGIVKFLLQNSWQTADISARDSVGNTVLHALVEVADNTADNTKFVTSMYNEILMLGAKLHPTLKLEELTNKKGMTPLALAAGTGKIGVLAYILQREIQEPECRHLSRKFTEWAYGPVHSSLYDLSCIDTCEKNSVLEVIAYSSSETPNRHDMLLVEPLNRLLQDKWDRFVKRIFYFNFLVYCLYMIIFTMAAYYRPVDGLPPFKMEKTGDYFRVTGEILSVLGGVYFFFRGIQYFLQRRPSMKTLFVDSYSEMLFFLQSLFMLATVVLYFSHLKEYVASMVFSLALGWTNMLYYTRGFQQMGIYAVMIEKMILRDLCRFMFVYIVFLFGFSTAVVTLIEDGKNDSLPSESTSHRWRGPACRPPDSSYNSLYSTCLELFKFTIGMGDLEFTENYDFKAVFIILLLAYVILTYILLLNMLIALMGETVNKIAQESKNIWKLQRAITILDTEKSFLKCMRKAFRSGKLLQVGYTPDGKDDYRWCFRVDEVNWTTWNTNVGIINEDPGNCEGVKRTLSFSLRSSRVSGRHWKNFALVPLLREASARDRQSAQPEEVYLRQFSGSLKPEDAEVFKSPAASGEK
T2 sequence (O75762 whole entry): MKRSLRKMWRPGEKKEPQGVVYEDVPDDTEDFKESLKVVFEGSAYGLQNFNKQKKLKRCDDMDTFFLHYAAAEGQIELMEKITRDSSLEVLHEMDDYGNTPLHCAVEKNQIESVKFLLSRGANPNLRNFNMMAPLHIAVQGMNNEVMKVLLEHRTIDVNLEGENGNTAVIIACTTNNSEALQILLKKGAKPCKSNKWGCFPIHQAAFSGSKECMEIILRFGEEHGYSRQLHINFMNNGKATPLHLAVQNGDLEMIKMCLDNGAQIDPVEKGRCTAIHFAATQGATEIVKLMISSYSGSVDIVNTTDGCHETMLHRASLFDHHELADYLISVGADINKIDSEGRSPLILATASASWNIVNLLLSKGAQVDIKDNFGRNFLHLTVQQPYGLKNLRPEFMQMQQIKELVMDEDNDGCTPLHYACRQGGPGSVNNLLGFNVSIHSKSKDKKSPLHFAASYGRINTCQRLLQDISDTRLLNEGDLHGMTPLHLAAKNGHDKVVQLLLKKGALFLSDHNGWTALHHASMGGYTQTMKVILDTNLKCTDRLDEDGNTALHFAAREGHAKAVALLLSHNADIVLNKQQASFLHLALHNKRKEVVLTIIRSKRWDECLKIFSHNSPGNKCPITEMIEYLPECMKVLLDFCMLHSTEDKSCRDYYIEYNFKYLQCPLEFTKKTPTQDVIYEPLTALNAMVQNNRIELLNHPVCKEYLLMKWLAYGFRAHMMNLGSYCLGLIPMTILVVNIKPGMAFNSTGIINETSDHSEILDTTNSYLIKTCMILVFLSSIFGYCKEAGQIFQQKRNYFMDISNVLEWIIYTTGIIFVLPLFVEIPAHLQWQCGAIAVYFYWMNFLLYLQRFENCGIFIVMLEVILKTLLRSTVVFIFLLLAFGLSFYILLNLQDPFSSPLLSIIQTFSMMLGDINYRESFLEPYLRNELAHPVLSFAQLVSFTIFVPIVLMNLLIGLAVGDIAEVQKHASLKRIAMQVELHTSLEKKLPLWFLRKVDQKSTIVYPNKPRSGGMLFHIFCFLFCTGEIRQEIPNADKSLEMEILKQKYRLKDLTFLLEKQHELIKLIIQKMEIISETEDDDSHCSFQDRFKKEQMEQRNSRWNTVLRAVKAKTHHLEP

| SMILES | Elevation of [Ca]i in HEK-293 TRPV1 cells compared with HEK-293 EV cells [1] | Change of Ca5 fluorescence, Mean ± SEM, TRPV1 (10 µM) [1] [%] | TRPV1 response, Mean± SEM (N) [1] | Emax ± SEM % TRPV1 (30 µM) [1] [%] | Change in Ca5 fluorescence, individual experiments (CRC raw data) ([1]; log concentration -4.52288 (M)) | Change in Ca5 fluorescence, individual experiments (CRC raw data) ([1]; log concentration -5 (M)) | Change in Ca5 fluorescence, individual experiments (CRC raw data) ([1]; log concentration -5.52288 (M)) | Change in Ca5 fluorescence, individual experiments (CRC raw data) ([1]; log concentration -6 (M)) | Change in Ca5 fluorescence, individual experiments (CRC raw data) ([1]; log concentration -6.52288 (M)) | Change in Ca5 fluorescence, individual experiments (CRC raw data) ([1]; log concentration -7 (M)) | Elevation of [Ca]i in HEK-293 TRPA1 cells compared with HEK-293 EV cells [2] | Change of Ca5 fluorescence, Mean ± SEM, TRPA1 (10 µM) [2] [%] | TRPA1 activation at the highest concentration tested [2] | TRPA1 response compared with the highest concentration of cinnamaldehyde (300 µM) [2] | TRPA1 response, Mean± SEM (N) [2] | Emax ± SEM % TRPA1 (30 µM) [2] [%] | Change in Ca5 fluorescence, individual experiments (CRC raw data) ([2]; log concentration -4.52288 (M)) | Change in Ca5 fluorescence, individual experiments (CRC raw data) ([2]; log concentration -5 (M)) | Change in Ca5 fluorescence, individual experiments (CRC raw data) ([2]; log concentration -5.52288 (M)) | Change in Ca5 fluorescence, individual experiments (CRC raw data) ([2]; log concentration -6 (M)) | further results |
| --- | --- | --- | --- | --- | --- | --- | --- | --- | --- | --- | --- | --- | --- | --- | --- | --- | --- | --- | --- | --- | --- |
| CC/C=C\C/C=C\C/C=C\C/C=C\C/C=C\CCCC(=O)NCCO [EPEA, eicosapentaenoyl ethanolamide] | did not produce a notable change | 15 ± 8 | 51± 56 | 51 ± 22 | 12.8698 and 124.435 and 117.092 and 13.2242 and 28.647 and 8.814 | 6.443 and 53.2228 and 9.9712 and 11.9185 and 2.5776 and 3.793 | 5.664 and 10.8694 and 3.209 and 12.2234 and 1.072 and 3.982 | 2.913 and 5.488 and 1.312 and 9.151 and 2.704 and 1.489 | 3.773 and 2.311 and 2.08 and 9.31 and 0.4729 and 1.052 | 7.0578 and 1.12 and 6.0854 and 9.074 and 2.61 and 2.864 | did not produce a change | 50 ± 40 | activated TRPA1 | significantly smaller | 274± 60 | 274 ± 27 | 345.33 and 330.592 and 234.198 and 185.482 and 229.324 and 316.639 | 250.67 and 8.984 and 4.299 and 4.23 and 22.2267 and 8.362 | 6.789 and 4.391 and 2.799 and 3.328 and 5.534 and 8.248 | 2.3186 and 6.477 and 1.9747 and 2.489 and 1.415 and 7.402 | Change in Ca5 fluorescence, individual experiments (CRC raw data) ([2]; log concentration -6.52288 (M)): 2.468 and 7.816 and 1.613 and 1.7019 and 8.366 and 8.252; Change in Ca5 fluorescence, individual experiments (CRC raw data) ([2]; log concentration -7 (M)): 1.245 and 5.751 and 2.391 and 4.163 and 4.153 and 8.202; Change of Ca5 fluorescence, Mean ± SEM, EV (10 µM) [3]: 3 ± 1% |
| CCCCC/C=C\C/C=C\C/C=C\CCCCC(=O)NCCO [γ-LEA, γ-linolenoyl ethanolamide] | significantly greater | 277 ± 67 | 354± 56 | 354 ± 39 | 350.183 and 323.986 and 542.155 and 300.489 and 279.486 and 328.331 | 408.892 and 291.398 and 513.101 and 87.8703 and 117.804 and 243.201 | 21.7947 and 80.3389 and 37.6766 and 7.854 and 2.348 and 95.5783 | 179.174 and 9.167 and 5.6781 and 5.979 and 3.41 and 2.934 | 5.188 and 2.355 and 8.6025 and 1.698 and 1.3988 and 2.387 | 0.9319 and 4.487 and 3.741 and 0.8649 and 0.1851 and 3.24 | significantly greater | 87 ± 32 | activated TRPA1 | did not differ | 311 ± 60 | 311 ± 11 | 346.049 and 274.809 and 332.645 and 317.863 and 295.869 and 300.839 | 11.624 and 8.016 and 83.7476 and 222.133 and 100.409 and 97.3092 | 5.237 and 1.372 and 11.2552 and 5.494 and 2.231 and 27.0912 | 2.963 and 1.112 and 12.1911 and 2.48 and 2.092 and 1.749 | Maximal TRPV1 response compared with the highest concentration of capsaicin ([1]; 30 µM vs capsaicin 10 µM): did not differ; Change in Ca5 fluorescence, individual experiments (CRC raw data) ([2]; log concentration -6.52288 (M)): 0.5786 and 1.167 and 6.112 and 4.171 and 1.807 and 1.825; Change in Ca5 fluorescence, individual experiments (CRC raw data) ([2]; log concentration -7 (M)): 0.7736 and 1.971 and 6.385 and 5.071 and 2.235 and 0.6536; Change of Ca5 fluorescence, Mean ± SEM, EV (10 µM) [3]: 11 ± 2% |
